SMILES strings stand for the structures. Converted amounts (≈) assume the structure as drawn. Read-outs that look alike come from different tables or passages of the source.

The nature of data set [1]: Water solubility. In kind it is physicochemical.
Data set [2] relates to Phytophthora infestans. It counts as in vivo, Phytophthora infestans (on tomato plants cv Prof. Rudloff). The note with it: soil drench 2 days before infection, tomato.
Data set [3] relates to Phytophthora infestans. The note with it: sunlight excluded; only the Z-isomer; reported in Brighton Crop Protection Conference, 1988, 17-24; cited from earlier work.
The test system of data set [4] is tomato plants. As to conditions: in vivo.
[5] abbreviates: 6.25 ppm active ingredient (0.11 kg/ha).
[6] abbreviates: 12.5 ppm active ingredient (0.2 kg/ha).
Setting [7] is: 25 ppm active ingredient (0.44 kg/ha).
The mark [8] stands for this setting: 50 ppm active ingredient (0.88 kg/ha).
[9] abbreviates: 100 ppm active ingredient (1.76 kg/ha).

Usually solubility stands for the dissolved amount per volume that the medium holds. A low value points to little dissolved substance. In the case of `COc1ccc(/C(=C/C(=O)N2CCOCC2)c2ccc(Cl)cc2)cc1OC` [E-isomer], the concentration in solution in data set [1] (solubility) was 30 µg/mL (≈ 77.3 µM). Besides, the “Activity in % (ABBOTT formula, diseased leaf area)” value (shortened to “Activity in %”) was 16% in data set [2] (setting [5]); 47% in data set [2] (setting [6]); 71% in data set [2] (setting [7]); 94% in data set [2] (setting [8]); 97% in data set [2] (setting [9]).

For the compound `COc1ccc(C(=CC(=O)N2CCOCC2)c2ccc(Cl)cc2)cc1OC` [E/Z 50:50, 4-[3-(4-chlorophenyl)-3-(3,4-dimethoxyphenyl)-acryloyl]morpholine], the “Activity in %” value in data set [2] (setting [5]) turned out to be 91%; in data set [2] (setting [6]), 98%; in data set [2] (setting [7]), 100%; in data set [2] (setting [8]), 100%; in data set [2] (setting [9]) it was 100%.

In turn, `COc1ccc(/C(=C\C(=O)N2CCOCC2)c2ccc(Cl)cc2)cc1OC` [Z-isomer, Z-isomer of 4-[3-(4-chlorophenyl)-3-(3,4-dimethoxyphenyl)acryloyl]morpholine] came in with a solubility in data set [1] of 7 µg/mL (≈ 18 µM). Also, the fungitoxicity in vitro result in data set [3] is recorded as “fungitoxic”. Also, the “initial concentrations in the leaves, Z-isomer relative to E-isomer” value in data set [4] was “about 5 times higher”. In addition, the “Activity in %” value in data set [2] (setting [5]), in data set [2] (setting [6]), in data set [2] (setting [7]), in data set [2] (setting [8]) and in data set [2] (setting [9]) was 100% in each case.
